According to PubChem BioAssay (NCI):
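All cell lines were grown in 96-well plates and treated with compound for 48 hours. GI50 is the concentration that inhibits growth by half. TGI marks complete inhibition of growth.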

Assays:
Experiment in all cases: inhibition of tumour cell growth, NCI panel, 48 h
OVCAR-5 ovarian = tested on: OVCAR-5 ovarian
MDA-MB-231 breast = tested on: MDA-MB-231 breast
OVCAR-4 ovarian = tested on: OVCAR-4 ovarian
SN12C renal = tested on: SN12C renal
M14 melanoma = tested on: M14 melanoma
HS 578T breast = tested on: HS 578T breast
HL-60(TB) leukemia = tested on: HL-60(TB) leukemia
CAKI-1 renal = tested on: CAKI-1 renal
NCI-H226 lung = tested on: NCI-H226 lung
SR leukemia = tested on: SR leukemia

SMILES	TGI (OVCAR-5 ovarian)	TGI (MDA-MB-231 breast)	TGI (OVCAR-4 ovarian)	TGI (SN12C renal)	TGI (M14 melanoma)	TGI (HS 578T breast)	TGI (HL-60(TB) leukemia)	TGI (CAKI-1 renal)	TGI (NCI-H226 lung)	TGI (SR leukemia)	GI50 (OVCAR-5 ovarian)	GI50 (SR leukemia)	GI50 (MDA-MB-231 breast)	GI50 (OVCAR-4 ovarian)	GI50 (SN12C renal)	GI50 (M14 melanoma)	GI50 (HS 578T breast)	GI50 (CAKI-1 renal)	GI50 (NCI-H226 lung)	GI50 (HL-60(TB) leukemia)
O=C(CCCc1ccccn1)c1ccccc1	> 100 µM	> 100 µM	> 100 µM	> 100 µM	> 100 µM	> 100 µM	> 100 µM	> 100 µM	> 100 µM	–	–	–	–	–	–	–	–	–	–	–
O=C(Nc1ccccc1Br)c1cccc([N+](=O)[O-])c1O	> 94 µM	–	> 28.9 µM	> 81.8 µM	28.9 µM	–	12.9 µM	> 43.8 µM	14.8 µM	33 µM	–	–	–	–	–	–	–	–	–	–
O=C(O)CCCCn1cnc2c(=S)nc[nH]c21	> 100 µM	> 100 µM	> 100 µM	> 100 µM	> 100 µM	> 100 µM	–	> 100 µM	> 100 µM	> 100 µM	–	–	–	–	–	–	–	–	–	–
CC(C)(C)[Si](C)(C)O/N=C\c1ccc(O[Si](C)(C)C(C)(C)C)cc1	> 100 µM	–	> 100 µM	> 100 µM	> 100 µM	–	> 100 µM	> 100 µM	–	–	–	–	–	–	–	–	–	–	–	–
COC(=O)[C@H](CC(C)C)NC(=O)NC(=O)NC(=O)CI	30 µM	25.8 µM	4.26 µM	16.2 µM	4.94 µM	77.4 µM	–	2.23 µM	10 µM	4.37 µM	14.3 µM	1.25 µM	10.2 µM	1.88 µM	3.61 µM	2.03 µM	24.3 µM	1.06 µM	2.95 µM	–
CN1c2ccccc2S(=O)(=O)n2c(COc3ccc(Cl)cc3)nnc21	> 100 µM	> 100 µM	> 100 µM	> 100 µM	> 100 µM	> 100 µM	> 100 µM	> 100 µM	> 100 µM	–	–	–	–	–	–	–	–	–	–	–
N#CC(C#N)=CSc1ccccc1	68.9 µM	–	> 100 µM	59.8 µM	66.8 µM	–	> 100 µM	74.1 µM	51.2 µM	> 100 µM	–	–	–	–	–	–	–	–	–	–
O=C(O)C1CCCCN1C(=O)c1ccccc1 (stereo unspecified)	> 100 µM	–	> 100 µM	> 100 µM	> 100 µM	–	> 100 µM	–	–	> 100 µM	–	–	–	–	–	–	–	–	–	–
NC(=O)C(NC=O)c1ccccc1 (stereo unspecified)	–	> 100 µM	> 100 µM	> 100 µM	> 100 µM	> 100 µM	> 100 µM	> 100 µM	–	> 100 µM	–	–	–	–	–	–	–	–	–	–
Cc1cc(NS(=O)(=O)c2ccc(NC(=O)c3cccc4c(Nc5ccc(S(=O)(=O)Nc6cc(C)on6)cc5)c5ccccc5nc34)cc2)no1	> 100 µM	–	> 100 µM	> 100 µM	> 100 µM	–	67 µM	> 100 µM	–	–	–	–	–	–	–	–	–	–	–	–
Cc1cc(C)cc(Sc2c([N+](=O)[O-])ncn2C)c1	53.5 µM	–	44.1 µM	31.8 µM	27.6 µM	–	–	89.2 µM	22 µM	41 µM	–	–	–	–	–	–	–	–	–	–
Cc1cc(C(=O)N2CCN(Cc3ccccc3)CC2)c(C)o1	> 100 µM	–	> 100 µM	> 100 µM	> 100 µM	–	> 100 µM	> 100 µM	–	> 100 µM	–	–	–	–	–	–	–	–	–	–
CCN(CC)CCNC(=O)c1cccc2cc3ccccc3nc12	27.7 µM	–	–	51.4 µM	21.7 µM	–	24.4 µM	> 100 µM	15.9 µM	–	–	–	–	–	–	–	–	–	–	–
CCC[CH2][Sn]([CH2]CCC)([O]C(=O)c1nccnc1N)[O]C(=O)c1nccnc1N	3.1 µM	–	3.49 µM	2.04 µM	2.49 µM	–	1.42 µM	1.77 µM	2.63 µM	2.35 µM	1.72 µM	0.294 µM	–	2.02 µM	0.791 µM	1.23 µM	–	0.226 µM	1.33 µM	0.262 µM
NCC1OC(OC2C(CO)OC(OC3C(O)C(N)CC(N)C3OC3OC(CO)C(O)C(O)C3N)C2O)C(N)C(O)C1O (stereo unspecified)	> 50 µg/mL	> 50 µg/mL	> 50 µg/mL	–	> 50 µg/mL	> 50 µg/mL	–	> 50 µg/mL	> 50 µg/mL	–	> 50 µg/mL	–	> 50 µg/mL	> 50 µg/mL	–	> 50 µg/mL	> 50 µg/mL	> 50 µg/mL	> 50 µg/mL	–
O=C1C(Cl)=C(Nc2cccc(O)c2)C(=O)N1c1ccc(Cl)c(Cl)c1	35.5 µM	–	> 100 µM	39.4 µM	37.4 µM	54.3 µM	–	59.1 µM	46.6 µM	67.1 µM	18 µM	14.2 µM	–	34.4 µM	18.1 µM	18.9 µM	20.5 µM	22.8 µM	19.7 µM	–
C=C(C)[C@@H]1CCC2=C[C@@H](OC2=O)[C@@H](C(=C)C)C(=O)/C=C(/C)C(=O)C1	> 100 µM	> 100 µM	> 100 µM	77.3 µM	50.5 µM	> 100 µM	–	60.9 µM	> 100 µM	–	70.6 µM	–	45.2 µM	71.6 µM	28.6 µM	20.8 µM	35.1 µM	25.4 µM	36.9 µM	–
CC1(C)CC2C=C(C=O)C3(C=O)CC3(C)C2C1 (stereo unspecified)	4.14 µM	3.87 µM	3.22 µM	8.23 µM	5.24 µM	–	> 100 µM	4.26 µM	9.18 µM	2.45 µM	–	–	–	–	–	–	–	–	–	–
C[C@H]1CC[C@@H]2[C@@H](C)[C@H]3[C@H](C[C@H]4[C@@H]5CC=C6C[C@@H](O)CC[C@]6(C)[C@H]5C[C@H](O)[C@]34C)N2C1	> 100 µM	> 100 µM	> 100 µM	> 100 µM	> 100 µM	> 100 µM	–	> 100 µM	> 100 µM	> 100 µM	–	–	–	–	–	–	–	–	–	–
COC(=O)C1CCC(Nc2cccc(C(F)(F)F)c2)=N1 (stereo unspecified)	> 100 µM	–	> 100 µM	> 100 µM	> 100 µM	–	> 100 µM	> 100 µM	> 100 µM	–	–	–	–	–	–	–	–	–	–	–
O=C(O)C1c2ccccc2C(C(=O)O)c2ccccc21 (stereo unspecified)	> 100 µM	–	> 100 µM	> 100 µM	> 100 µM	–	> 100 µM	> 100 µM	–	> 100 µM	–	–	–	–	–	–	–	–	–	–
